Experimental data reported in US20240374626A1, “METHODS OF ENHANCING MILK PRODUCTION IN LACTATING MAMMALIAN SUBJECTS” (priority 2023, published 2024).

How the values were obtained:
γH2AX [1] = experiment: γH2AX immunofluorescence on HC11 cells; type: cell-based, mouse; settings: HC11, doxorubicin 50 nM, 24 h post-treatment
Experimental: […] Drugs were maintained through the differentiation process and added with every change of media.
HC11 cells were fixed using ice-cold MeOH for 10 min. After washing with 1×PBS, cells were incubated for 1 h at room temperature with primary antibodies [anti-γH2AX (SCBT, sc-517348), anti-pATR (Genetex, GTX128145), anti-PLIN2 (generously provided by Jim McManaman)] in a humid incubation chamber. After incubation, cells were washed three times using 1×PBS and incubated for 1 h at room temperature in darkness using corresponding Alexa Fluor AffiniPure secondary antibodies (Jackson ImmunoResearch) and Phalloidin-iFluor 488 Reagent (Abcam, ab176753) when indicated. Cells were washed three times using 1×PBS and incubated with Hoechst 33342 (AnaSpec, AS-83218) for 10 min. Cells were mounted using fluoromount-G (Southern Biotech, 0100-01) and visualized using Zeiss Axio Imager Microscope. Integrated density of PLIN2, nuclear γH2AX and nuclear pATR was quantify using ImageJ.

γH2AX [2] = experiment: Contralateral intraductal injection: γH2AX IHC in CK8+ luminal cells of MG; type: in vivo, mouse; settings: doxorubicin IDI (1.5 μg per gland) at PD12.5 vs contralateral DMSO vehicle, 24 h post-injection (PD13.5)
Experimental: (§1) Nulliparous analysis was performed using adult (10-12-week-old) female mice. For timed pregnancies and lactation analysis, CD-1 pregnant adult females were obtained from Charles Rivers. Embryos were examined at the time of mammary gland harvesting to confirm pregnancy state. […] Plugged mice were considered to be PD0.5 on the day of the observed plug. All females used in this study were age matched.
Mice were anesthetized with isoflurane (VetOne, 501017) Prior to intraductal injections, hair was removed from around the nipples using Nair hair remover. Injections into the duct of the nipple were performed with 33 G needles (Hamilton, 7803-05) and a volume of 40 μl per gland. Right inguinal, abdominal and thoracic glands were injected with doxorubicin (1.5 μg per gland, Cayman Chemical, 15007), nucleosides (40 μl per gland, Millipore-Sigma, ES-008-D) or Mk-1775 (50 μg per gland, Cayman Chemical, 21266), and left glands were injected with PBS or DMSO (Thermo Scientific, BP231) diluted in PBS.
Mammary gland tissue was fixed in 10% neutral buffered formalin (EMD Millipore, MR0458682) at 4° C. overnight. Fixation was quenched using 0.2% glycine (Fisher Scientific, BP381) in PBS, for 1 h at room temperature. […] Integrated density of nuclear γH2AX and pATR was quantified using ImageJ.

MG alveoli = experiment: Contralateral intraductal injection: milk staining (IHC) integrated density per alveolus; type: in vivo, mouse; settings: Mk-1775 IDI at PD16.5 vs contralateral DMSO, LD5 MGs
Experimental: as §1
Mice were anesthetized with isoflurane (VetOne, 501017) Prior to intraductal injections, hair was removed from around the nipples using Nair hair remover. Injections into the duct of the nipple were performed with 33 G needles (Hamilton, 7803-05) and a volume of 40 μl per gland. […]
Mammary gland tissue was fixed in 10% neutral buffered formalin (EMD Millipore, MR0458682) at 4° C. overnight. […] Incubation with secondary antibodies [(donkey anti-Rat 647 (Thermo-Invitrogen; A48272) and donkey anti-Rabbit 488 (Thermo-Invitrogen; A32790)] was performed for 2 h at room temperature. Sections were washed with 0.3% triton in PBS for 30 min (×3) at room temperature and mounted using flouromount-G (Southern Biotech, 0100-01). Image acquisition was performed using Zeiss Axio Imager Microscope. Macros were generated to quantify lumen milk integrated density per alveolus using Image J.

| SMILES | γH2AX (γH2AX [1]) | γH2AX in CK8+ luminal cells (γH2AX [2]) | decrease in milk production (IHC, milk integrated density per alveolus) (MG alveoli) [%] |
| --- | --- | --- | --- |
| COc1cccc2c1C(=O)c1c(O)c3c(c(O)c1C2=O)C[C@@](O)(C(=O)CO)C[C@@H]3O[C@H]1C[C@H](N)[C@H](O)[C@H](C)O1 [doxorubicin] | increase | Increased | – |
| C=CCn1c(=O)c2cnc(Nc3ccc(N4CCN(C)CC4)cc3)nc2n1-c1cccc(C(C)(C)O)n1 [Mk-1775] | – | – | 21 |
